Assay results taken from patent publication US12649751B2 (Arcus Biosciences, Inc., priority 2022, dated 2026).
Read-outs that look alike come from different tables or passages of the source.

Legend:
HPK1 = HPK1 (Homo sapiens, UniProt Q92918); assay: HPK1 Biochemical Assay (ADP-Glo luminescence; low ATP 10 μM or high ATP 200 μM)
[1] = test system: p-SLP-76 (Ser376) in Jurkat cells; assay: pSLP76 Cellular Assay (AlphaLISA SureFire Ultra p-SLP-76 (Ser376), anti-CD3 activated Jurkat cells); type: cell-based; conditions: Homo sapiens, read-out: Cellular Potency
Procedure, shortened: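 Read-out is AlphaLISA p-SLP-76 (Ser376) signal at 570 nm in Jurkat lysates, with IC50 fitted by 4-parameter logistic. Cells were starved overnight, exposed 1 h at 37 °C to 22 twofold compound dilutions in HBSS, then activated 45 min with anti-CD3 (0.025 mg/ml stock added).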

[2] = 2 nM HPK1, 10 μM ATP, read-out: Biochemical Potency (low ATP)
[3] = Jurkat cells, anti-CD3 stimulation, pSLP76
[4] = HPK1 ADP-Glo assay, high ATP (200 μM ATP, 5 nM HPK1), read-out: Biochemical Potency (high ATP)
[5] = pSLP76 (Ser376) AlphaLISA, anti-CD3 activated Jurkat cells
[6] = HPK1 ADP-Glo assay, low ATP (10 μM ATP, 2 nM HPK1), read-out: Biochemical Potency (low ATP)

HPK1, sequence (Q92918 whole entry, species assumed): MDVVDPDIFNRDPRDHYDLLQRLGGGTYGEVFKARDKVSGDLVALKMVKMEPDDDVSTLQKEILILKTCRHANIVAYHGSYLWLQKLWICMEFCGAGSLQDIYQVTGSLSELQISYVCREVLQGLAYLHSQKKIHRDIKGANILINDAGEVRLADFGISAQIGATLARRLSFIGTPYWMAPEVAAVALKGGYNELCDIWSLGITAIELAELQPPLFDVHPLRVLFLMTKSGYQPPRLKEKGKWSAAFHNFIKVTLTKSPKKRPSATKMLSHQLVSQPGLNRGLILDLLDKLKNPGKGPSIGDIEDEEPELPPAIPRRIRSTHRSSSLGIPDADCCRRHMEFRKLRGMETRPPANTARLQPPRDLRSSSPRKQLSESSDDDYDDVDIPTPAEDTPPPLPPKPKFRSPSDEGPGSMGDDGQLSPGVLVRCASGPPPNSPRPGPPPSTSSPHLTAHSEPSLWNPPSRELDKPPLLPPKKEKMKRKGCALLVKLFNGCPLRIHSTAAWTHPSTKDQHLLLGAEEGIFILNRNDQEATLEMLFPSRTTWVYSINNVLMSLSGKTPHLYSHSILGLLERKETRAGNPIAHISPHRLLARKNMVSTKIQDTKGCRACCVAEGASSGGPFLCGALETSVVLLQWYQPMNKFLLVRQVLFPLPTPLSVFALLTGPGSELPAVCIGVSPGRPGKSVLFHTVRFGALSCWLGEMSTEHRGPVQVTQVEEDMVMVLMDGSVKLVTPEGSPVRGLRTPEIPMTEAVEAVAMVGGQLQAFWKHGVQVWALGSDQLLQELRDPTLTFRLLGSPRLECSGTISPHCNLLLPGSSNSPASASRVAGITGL

Row | IC50 (HPK1; [2]) | IC50 [1, 3] | IC50 (HPK1; [4]) | IC50 [1, 5] | IC50 (HPK1; [6]) | Structure (SMILES)
1 | < 100 nM | 100 to 1000 nM |  |  |  | Cc1cccnc1-c1nc2cc(Nc3ccc(C4CCOCC4)c(CN4CC[C@H](F)C4)n3)ncc2s1 [Example 214, 6-{[(3S)-3-Fluoropyrrolidin-1-yl]methyl}-N-[2-(3-methylpyridin-2-yl)-[1,3]thiazolo[5,4-c]pyridin-6-yl]-5-(oxan-4-yl)pyridin-2-amine]
2 |  |  | < 100 nM | 100 to 1000 nM |  | CCN1C[C@@H]2C[C@H]1CN2c1nc(C)cc(Nc2cc3nc(-c4cncc(N5CCC(F)CC5)c4)sc3cn2)n1 [Example 470]
3 | < 100 nM | 100 to 1000 nM |  |  |  | CN1C[C@@H]2C[C@H]1CN2c1cccc(Nc2cc3nc(-c4cccc(C(=O)N5CCCC5)c4)sc3cn2)n1 [Example 130, 6-[(1S,4S)-5-Methyl-2,5-diazabicyclo[2.2.1]heptan-2-yl]-N-{2-[3-(pyrrolidine-1-carbonyl)phenyl]-[1,3]thiazolo[5,4-c]pyridin-6-yl}pyridin-2-amine]
4 |  |  | < 100 nM | 100 to 1000 nM | < 100 nM | Cc1cc(Nc2cc3nc(-c4ccnc(C(C)(C)O)c4)sc3cn2)nc(N2C[C@@H]3C[C@H]2CN3C)n1 [Example 406]
5 |  |  | < 100 nM | 100 to 1000 nM |  | CNC(=O)c1cccc(-c2nc3cc(Nc4cc(C)nc(N5C[C@@H]6C[C@H]5CN6CCO)n4)ncc3s2)c1 [Example 549]
6 | < 100 nM | > 5000 nM |  |  |  | CN(C)Cc1cc(N2CCOCC2)cc(Nc2cc3nc(-c4c(F)cccc4F)sc3cn2)n1 [Example 275, N-[2-(2,6-Difluorophenyl)-[1,3]thiazolo[5,4-c]pyridin-6-yl]-6-[(dimethylamino)methyl]-4-(morpholin-4-yl)pyridin-2-amine]
7 | < 100 nM | > 5000 nM |  |  |  | Cc1cccnc1-c1nc2cc(Nc3cccc(N4C[C@@H](C)N(C)[C@@H](C)C4)n3)ncc2s1 [Example 100, N-[2-(3-Methylpyridin-2-yl)-[1,3]thiazolo[5,4-c]pyridin-6-yl]-6-[(3R,5S)-3,4,5-trimethylpiperazin-1-yl]pyridin-2-amine]
8 |  |  | < 100 nM | 100 to 1000 nM |  | Cc1cccnc1-c1nc2cc(Nc3cc(C4CC4)nc(N4C[C@@H]5C[C@H]4CN5C)n3)ncc2s1 [Example 436]
9 | < 100 nM | < 100 nM |  |  |  | Cc1cc(Nc2cc3nc(-c4ncccc4C)sc3cn2)nc(N2C[C@@H]3C[C@H]2CN3C)n1 [Example 160, 6-Methyl-2-[(1S,4S)-5-methyl-2,5-diazabicyclo[2.2.1]heptan-2-yl]-N-[2-(3-methylpyridin-2-yl)-[1,3]thiazolo[5,4-c]pyridin-6-yl]pyrimidin-4-amine]
10 | < 100 nM | > 5000 nM |  |  |  | NC1(c2nc(Nc3cc4nc(-c5c(F)cccc5F)sc4cn3)ccc2N2CCC(F)(F)C2)CC1 [Example 274, 6-(1-Aminocyclopropyl)-N-[2-(2,6-difluorophenyl)-[1,3]thiazolo[5,4-c]pyridin-6-yl]-5-(3,3-difluoropyrrolidin-1-yl)pyridin-2-amine]
11 |  |  | < 100 nM | < 100 nM |  | Cc1cc(Nc2cc3nc(-c4cccc5c4C(C)(C)C(=O)N5)sc3cn2)nc(N2C[C@@H]3C[C@H]2CN3CCO)n1 [Example 350]
12 |  |  | < 100 nM | 100 to 1000 nM |  | CCN1C[C@@H]2C[C@H]1CN2c1nc(Nc2cc3nc(-c4cccc(C(=O)N5CCC(F)CC5)c4)sc3cn2)ccc1C [Example 321]
13 | < 100 nM | 100 to 1000 nM |  |  |  | c1cncc(-c2nc3cc(Nc4ccc(C5CCOC5)c(CN5CCCC5)n4)ncc3s2)c1 (stereo not drawn) [Example 254, 5-(Oxolan-3-yl)-N-[2-(pyridin-3-yl)-[1,3]thiazolo[5,4-c]pyridin-6-yl]-6-[(pyrrolidin-1-yl)methyl]pyridin-2-amine]
14 | < 100 nM | 100 to 1000 nM |  |  |  | Cc1c(-c2nc3cc(Nc4ccc(N5CCOCC5)c(CN(C)C)n4)ncc3s2)cnc2c1NCCO2 [Example 28, 6-[(Dimethylamino)methyl]-N-(2-{8-methyl-1H,2H,3H-pyrido[2,3-b][1,4]oxazin-7-yl}-[1,3]thiazolo[5,4-c]pyridin-6-yl)-5-(morpholin-4-yl)pyridin-2-amine]
15 |  |  | < 100 nM | < 100 nM |  | CCc1cc(C(=O)N(C)C)cc(-c2nc3cc(Nc4cc(C)nc(N5C[C@@H]6C[C@H]5CN6CC)n4)ncc3s2)c1 [Example 518]
16 |  |  | < 100 nM | 100 to 1000 nM | < 100 nM | c1cc(Nc2cc3nc(-c4ncco4)sc3cn2)nc(N2C[C@@H]3C[C@H]2CN3)n1 [Example 409]
17 |  |  | < 100 nM | 100 to 1000 nM |  | Cc1cc(Nc2cc3nc(-c4cncc(C5CC5)c4)sc3cn2)nc(N2C[C@@H]3C[C@H]2CN3CCO)n1 [Example 361]

The remaining lines, values behind:

Row | Structure (SMILES) | IC50 (HPK1; [2]) | IC50 [1, 3] | IC50 (HPK1; [4]) | IC50 [1, 5] | IC50 (HPK1; [6])
18 | Cc1cc(Nc2cc3nc(-c4cccc(C5(C(=O)N(C)C)CC5)c4)sc3cn2)nc(N2C[C@@H]3C[C@H]2CN3C)n1 [Example 393] |  |  | < 100 nM | 100 to 1000 nM | 
19 | CCN(CC)C(=O)c1cccc(-c2nc3cc(Nc4cc(C)nc(N5C[C@@H]6C[C@H]5CN6CCO)n4)ncc3s2)c1 [Example 504] |  |  | < 100 nM | < 100 nM | 
20 | Cc1cc(Nc2cc3nc(-c4ccnc(N5C[C@H]6COC[C@H]6C5)c4)sc3cn2)nc(N2C[C@@H]3C[C@H]2CN3C)n1 [Example 457] |  |  | < 100 nM | 100 to 1000 nM | 
21 | CCN1C[C@@H]2C[C@H]1CN2c1nc(C)cc(Nc2cc3nc(-c4cncc(N5C(=O)OC[C@H]5C)c4)sc3cn2)n1 [Example 295, (4R)-3-{5-[6-({2-[(1S,4S)-5-ethyl-2,5-diazabicyclo[2.2.1]heptan-2-yl]-6-methylpyrimidin-4-yl}amino)-[1,3]thiazolo[5,4-c]pyridin-2-yl]pyridin-3-yl}-4-methyl-1,3-oxazolidin-2-one] |  |  | < 100 nM | 100 to 1000 nM | 
22 | CCN1C[C@@H]2C[C@H]1CN2c1nc(C)cc(Nc2cc3nc(-c4cccc(C(=O)N5CCOC[C@H]5C)c4)sc3cn2)n1 [Example 527] |  |  | < 100 nM | 100 to 1000 nM | 
23 | CC(=O)N1CCc2c(cccc2-c2nc3cc(Nc4cc(C)nc(N5C[C@@H]6C[C@H]5CN6C)n4)ncc3s2)C1 [Example 389] |  |  | 100 to 1000 nM | 1000 to 5000 nM | 
24 | CCN1C[C@@H]2C[C@H]1CN2c1nc(C)cc(Nc2cc3nc(-c4cccc(C(=O)Nc5ccccc5)c4)sc3cn2)n1 [Example 522] |  |  | < 100 nM | 100 to 1000 nM | 
25 | Cc1cccnc1-c1nc2cc(Nc3nc(N4C[C@@H]5C[C@H]4CN5)ccc3F)ncc2s1 [Example 320] |  |  | < 100 nM | 100 to 1000 nM | < 100 nM
26 | Cc1cc(Nc2cc3nc(-c4cccc(-c5ncccc5C)c4)sc3cn2)nc(N2C[C@@H]3C[C@H]2CN3C)n1 [Example 586] |  |  | < 100 nM | 100 to 1000 nM | 
27 | Cc1cc(Nc2cc3nc(-c4cccc(C(=O)N5CCCCC5)c4)sc3cn2)nc(N2C[C@@H]3C[C@H]2CN3CCO)n1 [Example 352] |  |  | < 100 nM | < 100 nM | 
28 | FC(F)n1cc(-c2nc3cc(Nc4ccc(C5CCOCC5)c(CN5CCCC5)n4)ncc3s2)cn1 [Example 224, N-{2-[1-(Difluoromethyl)-1H-pyrazol-4-yl]-[1,3]thiazolo[5,4-c]pyridin-6-yl}-5-(oxan-4-yl)-6-[(pyrrolidin-1-yl)methyl]pyridin-2-amine] | < 100 nM | 1000 to 5000 nM |  |  | 
29 | Cc1cc(Nc2cc3nc(-c4cccc(C(=O)N(C)C)c4)sc3cn2)nc(N2C[C@@H]3C[C@H]2CN3CCOCCO)n1 [Example 502] |  |  | < 100 nM | 100 to 1000 nM | 
30 | Cc1cc(Nc2cc3nc(-c4cnn(CS(C)(=O)=O)c4)sc3cn2)nc(N2C[C@@H]3C[C@H]2CN3CCO)n1 [Example 369] |  |  | < 100 nM | 100 to 1000 nM | 
31 | CN(C)Cc1nc(Nc2cc3nc(-c4c(F)cccc4F)sc3cn2)ccc1N1CCC(O)CC1 [Example 12, 1-(6-{[2-(2,6-Difluorophenyl)-[1,3]thiazolo[5,4-c]pyridin-6-yl]amino}-2-[(dimethylamino)methyl]pyridin-3-yl)piperidin-4-ol] | < 100 nM | 1000 to 5000 nM |  |  | 
32 | Cc1cc(Nc2cc3nc(-c4cnn(CC5CC5)c4)sc3cn2)nc(N2C[C@@H]3C[C@H]2CN3CC(=O)N(C)C)n1 [Example 356] |  |  | 100 to 1000 nM | 1000 to 5000 nM | 
33 | Cc1cccnc1-c1nc2cc(Nc3nc(N4C[C@@H]5C[C@H]4CN5C)ccc3F)ncc2s1 [Example 109, 3-Fluoro-6-[(1S,4S)-5-methyl-2,5-diazabicyclo[2.2.1]heptan-2-yl]-N-[2-(3-methylpyridin-2-yl)-[1,3]thiazolo[5,4-c]pyridin-6-yl]pyridin-2-amine] | < 100 nM | 1000 to 5000 nM |  |  | 
34 | Cc1cc(Nc2cc3nc(-c4cncc(-c5ncc(F)cc5C)c4)sc3cn2)nc(N2C[C@@H]3C[C@H]2CN3C)n1 [Example 584] |  |  | < 100 nM | 100 to 1000 nM | 
35 | Cc1cccnc1-c1nc2cc(Nc3cc(C(C)C)nc(N4C[C@@H]5C[C@H]4CN5)n3)ncc2s1 [Example 435] |  |  | < 100 nM | 100 to 1000 nM | 
36 | Fc1cccc(F)c1-c1nc2cc(Nc3ccc(N4CCOCC4)c(CN4CCCC4)n3)ncc2s1 [Example 17, N-[2-(2,6-Difluorophenyl)-[1,3]thiazolo[5,4-c]pyridin-6-yl]-5-(morpholin-4-yl)-6-[(pyrrolidin-1-yl)methyl]pyridin-2-amine] | < 100 nM | 1000 to 5000 nM |  |  | 
37 | CN1C[C@@H]2C[C@H]1CN2c1nccc(Nc2cc3nc(-c4ccnc(C(C)(O)C(F)(F)F)c4)sc3cn2)n1 (stereo partly drawn) [Example 408] |  |  | < 100 nM | 100 to 1000 nM | < 100 nM
